# Values joined by “and” are separate entries in the source; they are usually repeats but may differ in a detail not shown here. Equal values may be shown once. Read-outs that look alike come from different tables or passages of the source.
# Columns and labels:
# [1] = tested on: Shionogi mouse mammary carcinoma cells; assay: cells; format: cell-based; settings: for Ki: read-out: Shionogi cells Antiandrogenic activity Ki
# [2] = target: T1, Rat Androgen Receptor (Rattus norvegicus, UniProt P15207); assay: Androgen receptor binding assay (HAP, [3H]R1881), rat prostate cytosol
# T1 construct: ventral prostates collected from 24 h-gonadectomized rats were homogenized in buffer A; from tissue; host or cells: rat ventral prostate cytosol (24 h-gonadectomized rats)
# T1 sequence (P15207 1-902): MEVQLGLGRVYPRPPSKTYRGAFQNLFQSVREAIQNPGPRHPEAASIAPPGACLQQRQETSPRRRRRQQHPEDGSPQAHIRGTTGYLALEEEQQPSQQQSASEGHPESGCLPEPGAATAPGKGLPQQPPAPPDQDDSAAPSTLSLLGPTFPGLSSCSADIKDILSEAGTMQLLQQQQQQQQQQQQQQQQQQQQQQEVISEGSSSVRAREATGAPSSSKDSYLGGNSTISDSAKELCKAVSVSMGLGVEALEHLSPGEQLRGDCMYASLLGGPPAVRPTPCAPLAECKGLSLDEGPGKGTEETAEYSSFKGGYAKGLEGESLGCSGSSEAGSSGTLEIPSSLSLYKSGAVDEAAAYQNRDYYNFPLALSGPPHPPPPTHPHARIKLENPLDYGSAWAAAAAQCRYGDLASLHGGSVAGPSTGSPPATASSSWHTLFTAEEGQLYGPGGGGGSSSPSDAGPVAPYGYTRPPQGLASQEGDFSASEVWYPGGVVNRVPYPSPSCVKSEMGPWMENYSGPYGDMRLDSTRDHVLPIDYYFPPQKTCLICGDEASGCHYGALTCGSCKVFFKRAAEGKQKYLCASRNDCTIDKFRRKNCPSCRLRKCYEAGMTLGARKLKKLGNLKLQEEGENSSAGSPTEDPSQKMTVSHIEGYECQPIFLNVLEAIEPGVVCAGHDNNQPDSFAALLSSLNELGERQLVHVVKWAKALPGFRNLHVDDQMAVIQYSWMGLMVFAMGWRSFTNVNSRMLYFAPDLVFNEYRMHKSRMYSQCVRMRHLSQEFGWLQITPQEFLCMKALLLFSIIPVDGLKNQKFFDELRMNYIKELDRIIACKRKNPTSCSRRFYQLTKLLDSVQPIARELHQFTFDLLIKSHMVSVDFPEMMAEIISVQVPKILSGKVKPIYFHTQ
# Description: On the morning of the binding assay, ventral prostates collected from 24 h-gonadectomized rats were homogenized in buffer A (1 g of tissue in 5 mL) and the homogenate was centrifuged as described above.
# Androgen binding is measured using the hydroxylapatite (HAP) assay. In brief, the radioactive steroid [^3H]R1881 solubilized in ethanol is diluted with buffer B (10 mM Tris-HCl, 1.5 mM EDTA disodium salt, 10 mM α-monothioglycerol, pH 7.4). Aliquots of the cell or prostate cytosol preparation (0.1 ml) are then incubated with 5 nM [^3H]R1881 (0.1 ml, ˜100 000 cpm) in the presence or absence of the indicated concentrations of unlabeled compounds (0.1 ml, prepared in buffer B containing 30% ethanol) for 16-18 h at 0-4° C. Triamcinolone acetonide (TAC; 100 nM) is added to mask progesterone receptors. Unbound steroids are separated by incubation for 40 min at 0-4° C. with 0.3 ml HAP prepared in buffer P (50 mM Tris-HCl, 10 mM KH2PO4, pH 7.4). After incubation with HAP and 10 min of centrifugation at 1000×g, the pellet is washed 3 times with 1 ml of buffer P. Thereafter, the radioactivity is extracted from the pellet by incubation at room temperature for 60 min with 1 ml of ethanol. After centrifugation, the supernatant is decanted into a scintillation vial and the pellet is extracted again with ethanol. After the addition of scintillation liquid, the radioactivity is measured in a liquid scintillation counter.
# [3] = target: T2, Human Androgen Receptor (Homo sapiens, UniProt P10275); format: binding
# T2 construct: expressed in transfected cells; host or cells: HEK-293 cells stably transfected with the pCMVneo-hAR plasmid (G-418 selection); cytosol used
# T2 sequence (P10275 1-920): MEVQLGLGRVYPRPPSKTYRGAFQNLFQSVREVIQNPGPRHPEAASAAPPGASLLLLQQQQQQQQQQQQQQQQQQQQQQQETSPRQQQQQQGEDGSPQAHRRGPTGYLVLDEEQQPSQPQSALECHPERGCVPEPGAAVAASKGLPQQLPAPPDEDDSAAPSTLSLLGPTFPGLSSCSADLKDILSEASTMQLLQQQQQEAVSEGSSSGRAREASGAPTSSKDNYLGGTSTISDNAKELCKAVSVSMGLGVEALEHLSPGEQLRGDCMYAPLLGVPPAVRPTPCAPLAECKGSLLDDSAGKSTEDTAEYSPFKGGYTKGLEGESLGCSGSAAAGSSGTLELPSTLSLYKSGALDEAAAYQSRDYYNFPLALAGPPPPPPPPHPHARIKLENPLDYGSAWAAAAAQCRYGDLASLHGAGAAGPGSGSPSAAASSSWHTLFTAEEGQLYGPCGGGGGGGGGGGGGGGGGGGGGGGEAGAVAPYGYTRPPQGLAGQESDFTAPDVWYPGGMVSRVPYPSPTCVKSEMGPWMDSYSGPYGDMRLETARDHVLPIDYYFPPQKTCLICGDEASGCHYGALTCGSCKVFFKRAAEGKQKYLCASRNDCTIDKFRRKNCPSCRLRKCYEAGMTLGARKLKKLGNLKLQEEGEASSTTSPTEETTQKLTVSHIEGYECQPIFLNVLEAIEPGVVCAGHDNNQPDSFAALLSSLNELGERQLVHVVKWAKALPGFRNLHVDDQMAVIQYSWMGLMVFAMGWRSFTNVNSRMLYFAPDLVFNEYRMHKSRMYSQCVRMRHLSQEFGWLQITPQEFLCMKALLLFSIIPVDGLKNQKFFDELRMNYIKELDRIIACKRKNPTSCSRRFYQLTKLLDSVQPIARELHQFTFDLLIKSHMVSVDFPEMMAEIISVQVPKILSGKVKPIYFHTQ
# [4] = tested on: Immature Rat CX + DHT; assay: animal or person; format: in vivo; settings: for change in vivo at 0.1 mg / change in vivo at 0.5 mg: Rattus norvegicus, 168 h
# [5] = tested on: CX+ 4-DIONE in Mature Rat; assay: Systemic antiandrogenic activity in mature male rats; format: in vivo
# [6] = tested on: androgen receptor; assay: Antiandrogen / SARM / androgen profile observed on structural change; settings: structure-activity observation in estratriene derivatives
# Description: Preferred positions on the steroid to this change in activities are 3, 4, 11β, 16 and 17α. […] Moreover, when we changed the 4-fluoro by a 4-chloro on EM-6583, we obtained a pure androgen (EM-5697). Similarly, when we increased the size of the chain at 17α-position on (1,4-phenylene as a spacer group), EM-8419 became a SARM. Again, when we changed the 4-fluoro by a 4-chloro on EM-8419, we obtained a pure androgen (EM-5313).
# We also believed that a larger size increase could reverse the observed tendency (androgen to SARM or antiandrogen). Thus, it is not obvious to make good predictions of the biological activity of this compound family but some trends are observable.
# [7] = in vivo; settings: male, Sprague-Dawley, rat, po, 0.5 mg
# [8] = in vivo
# [9] = tested on: Immature Rat CX
# [10] = tested on: Intact Rat; assay: In vivo activity in intact rat (organ and muscle weight); settings: rat, in vivo
# [11] = po, read-out: In Vivo Antagonist % Change vs DHT (CX = −100%) SV
# [12] = po, read-out: In Vivo Antagonist % Change vs DHT (CX = −100%) VP
smiles,measurement,setting,value
C[C@]12CCC3c4ccc(C#N)c(F)c4CCC3C1CC[C@@]2(O)Cc1cc[n+]([O-])cc1 (some centres unmarked) [EM-5854],Shionogi cells Antiandrogenic activity Ki OH-Flu/Ki compound,[1],5.5 and 5.5 ± 1.2
same,Ki,[1],2.5 ± 0.4 nM
same,Rat Androgen Receptor Binding RBA (%) R1881 = 100%,[2],0.4 ± 0.1%
same,Human Androgen Receptor Binding RBA (%) R1881 = 100%,[3],0.63 ± 0.08%
same,change in vivo at 0.1 mg,[4]; [11],-86 ± 2%
same,change in vivo at 0.5 mg,[4]; [11],-85%
same,change in vivo at 0.1 mg,[4]; [12],-46 ± 2%
same,change in vivo at 0.5 mg,[4]; [12],-76%
same,inhibition of DHT-stimulated seminal vesicle weight,"[4]; rat, in vivo",85%
same,inhibition of DHT-stimulated ventral prostate weight,"[4]; rat, in vivo",76%
same,potency on rat androgen-sensitive parameters relative to currently available antiandrogens,"[4]; rat, in vivo",approximately 5 times
same,% change vs 4-DIONE Cont (CX Cont = −100% inh) Seminal Vesicles,[5]; 0.2 mg/rat/per os/ID,−69 ± 7%
same,% change vs 4-DIONE Cont (CX Cont = −100% inh) Ventral Prostate,[5]; 0.2 mg/rat/per os/ID,−34 ± 7%
same,% change vs 4-DIONE Cont (CX Cont = −100% inh) Seminal Vesicles,[5]; 1 mg/rat/per os/ID,−109 ± 5%
same,% change vs 4-DIONE Cont (CX Cont = −100% inh) Ventral Prostate,[5]; 1 mg/rat/per os/ID,−67 ± 2%
same,reversal of the stimulatory effect of 4-dione on ventral prostate weight,[5]; daily oral dose of 1 mg/rat,67%
same,4-dione-induced stimulation of seminal vesicle weight,[5]; orchidectomized mature rats with 4-dione implants,completely reversed
same,"activity profile (antiandrogen, SARM or androgen)",[6],pure antiandrogen
same,AUC,[7]; plasma,2930 ± 233 ng·h/mL
CC12CCC3c4ccc(C#N)c(Cl)c4CCC3C1CCCC2(O)Cc1cc[n+]([O-])cc1 (centres unmarked) [EM-5945],Shionogi cells Antiandrogenic activity Ki OH-Flu/Ki compound,[1],13
same,Ki,[1],0.9 nM
same,Rat Androgen Receptor Binding RBA (%) R1881 = 100%,[2],0.3%
same,Human Androgen Receptor Binding RBA (%) R1881 = 100%,[3],2.8 ± 0.4%
same,"Prostate Conc, 7 h (Rat)",[8]; po,1539 ng/g
CC12CCC3c4ccc(C#N)c(F)c4CCC3C1CCC2(O)Cc1ccc(-c2ccc[n+]([O-])c2)cc1 (centres unmarked) [EM-8419],% of stim of basal at 10^−7M (% over basal),[1],+94 ± 17%
same,% of stim of basal at 10^−7 M (DHT = 100%),[1],+62 ± 11%
same,% of inh of DHT at 10^−7 M (Basal = 100%),[1]; 0.0003 µM,+21 ± 11%
same,Human Androgen Receptor Binding RBA (%) R1881 = 100%,[3],83 ± 35%
same,In Vivo Agonist Rat CX % change vs CX (DHT CONT = +100%) Bulbo,[9],+115 ± 4%
same,In Vivo Agonist Rat CX % change vs CX (DHT CONT = +100%) SV,[9],+26 ± 2%
same,In Vivo Agonist Rat CX % change vs CX (DHT CONT = +100%) VP,[9],+39 ± 6%
same,In Vivo Anti-A Rat CX + DHT % change vs DHT (CX CONT = −100%) Bulbo,"[4]; rat, in vivo, po",+36 ± 11%
same,In Vivo Anti-A Rat CX + DHT % change vs DHT (CX CONT = −100%) SV,"[4]; rat, in vivo, po",−33 ± 7%
same,In Vivo Anti-A Rat CX + DHT % change vs DHT (CX CONT = −100%) VP,"[4]; rat, in vivo, po",−36 ± 0%
same,In Vivo Intact Rat % change vs Intact CONT (Intact CONT = +100%; CX CONT = 0%) Bulbo,[10],+238 ± 12%
same,In Vivo Intact Rat % change vs Intact CONT (Intact CONT = +100%; CX CONT = 0%) SZ,[10],+76 ± 2%
same,In Vivo Intact Rat % change vs Intact CONT (Intact CONT = +100%; CX CONT = 0%) VP,[10],+89 ± 5%
same,"activity profile (antiandrogen, SARM or androgen)",[6],became a SARM
same,AUC 24 h 0.5 mg/rat oral,[8],5725 ± 595 ng·h/mL
"CC(C)(O)C(=O)Nc1ccc([N+](=O)[O-])c(C(F)(F)F)c1 [Hydroxyflutamide, reference compound]",Shionogi cells Antiandrogenic activity Ki OH-Flu/Ki compound,[1],1
same,Ki,[1],16.8 ± 0.5 nM
same,Rat Androgen Receptor Binding RBA (%) R1881 = 100%,[2],0.1%
same,Human Androgen Receptor Binding RBA (%) R1881 = 100%,[3],0.21 ± 0.09%
same,AUC,[7]; in vivo,5380 ± 820 ng·h/mL

# Reference: US9284345B2 (priority 2007, dated 2016)
